Molecules are shown by their SMILES.

This series is filed under the species Homo sapiens. In words: Hepatic clearance in human. The settings on record: in vivo.
Turning to `CNS(=O)(=O)CCc1ccc2[nH]cc(C3CCN(C)CC3)c2c1`, the CL came out at 3.5 mL/min/kg.
`N=C(N)c1ccc(CNC(=O)[C@@H]2CCN2C(=O)[C@H](NCC(=O)O)C2CCCCC2)cc1` registered a CL of 0.3 mL/min/kg.
The same measure for `Nc1ncnc2c1ncn2CCOCP(=O)(O)O` [ADEFOVIR]: 0.4 mL/min/kg.
The same measure for `C=CCc1ccccc1OCC(O)CNC(C)C` (configuration not stated) [ALPRENOLOL]: 14.4 mL/min/kg; for `CC1(C)S[C@@H]2[C@H](NC(=O)[C@H](N)c3ccc(O)cc3)C(=O)N2[C@H]1C(=O)O` [AMOXICILLIN]: 1.4 mL/min/kg; for `CC1(C)S[C@@H]2[C@H](NC(=O)[C@H](N)c3ccccc3)C(=O)N2[C@H]1C(=O)O` [AMPICILLIN]: 1.6 mL/min/kg.
On to `CC(C)NCC(O)COc1ccc(COCCOC(C)C)cc1` (configuration not stated) [BISOPROLOL], for which the CL worked out at 1.4 mL/min/kg.
In turn, `CCCC1O[C@@H]2C[C@H]3[C@@H]4CCC5=CC(=O)C=C[C@]5(C)[C@H]4[C@@H](O)C[C@]3(C)[C@]2(C(=O)CO)O1` (some centres not stated) [BUDESONIDE] registered a CL of 19 mL/min/kg.
Molecule `COc1cc(OC)c(C(=O)CCCN2CCCC2)c(OC)c1` [BUFLOMEDIL] yielded a CL of 4.3 mL/min/kg.
The same measure for `COc1ccccc1OCCNCC(O)COc1cccc2[nH]c3ccccc3c12` (configuration not stated) [CARVEDILOL]: 7.7 mL/min/kg; for `CC1=C(C(=O)O)N2C(=O)[C@@H](NC(=O)[C@H](N)c3ccc(O)cc3)[C@H]2SC1` [CEFADROXIL]: 0.2 mL/min/kg.
The same measure for `CO/N=C(\C(=O)N[C@@H]1C(=O)N2C(C(=O)O)=C(COC(N)=O)CS[C@H]12)c1ccco1` [CEFUROXIME]: 0.1 mL/min/kg; for `CC1=C(C(=O)O)N2C(=O)[C@@H](NC(=O)[C@H](N)C3=CCC=CC3)[C@H]2SC1` [CEPHRADINE]: 0.2 mL/min/kg; for `CCN(CC)CCCC(C)Nc1ccnc2cc(Cl)ccc12` (configuration not stated) [CHLOROQUINE]: 1.8 mL/min/kg.
The same measure for `Nc1ccn(C[C@@H](CO)OCP(=O)(O)O)c(=O)n1.O.O` [CIDOFOVIR]: 0.3 mL/min/kg; for `c1ccc(C2(c3ccccc3)CC2C2=NCCN2)cc1` (configuration not stated) [CIFENLINE]: 4.4 mL/min/kg.
Molecule `O=C(O)[C@H]1/C(=C/CO)O[C@@H]2CC(=O)N21` [CLAVULANIC ACID] yielded a CL of 1.8 mL/min/kg.
The same measure for `NC1CCN(c2c(F)cc3c(=O)c(C(=O)O)cn(C4CC4)c3c2Cl)C1` (configuration not stated) [CLINAFLOXACIN]: 1.5 mL/min/kg.
The same measure for `Cc1onc(-c2c(Cl)cccc2Cl)c1C(=O)N[C@@H]1C(=O)N2[C@@H]1SC(C)(C)[C@@H]2C(=O)O` [DICLOXACILLIN]: 0.8 mL/min/kg; for `O=c1[nH]cnc2c1ncn2[C@H]1CC[C@@H](CO)O1` [DIDANOSINE]: 4.2 mL/min/kg; for `COc1ccc([C@@H]2Sc3ccccc3N(CCN(C)C)C(=O)[C@@H]2OC(C)=O)cc1` [DILTIAZEM]: 3.8 mL/min/kg.
Turning to `C[C@H]1O[C@@H](n2cc(F)c(=O)[nH]c2=O)[C@H](O)[C@@H]1O` [DOXIFLURIDINE], the CL was found to be 6.7 mL/min/kg.
The molecule `CCOc1ccc(/C=C2\NCCc3cc(OCC)c(OCC)cc32)cc1OCC` [DROTAVERINE] showed a CL of 3.5 mL/min/kg.
The same measure for `CCN(CC)C(=O)/C(C#N)=C/c1cc(O)c(O)c([N+](=O)[O-])c1` [ENTACAPONE]: 5.3 mL/min/kg; for `CC(C)(C)NC(=O)[C@H]1CC[C@H]2[C@@H]3CC=C4C=C(C(=O)O)CC[C@]4(C)[C@H]3CC[C@]12C` [EPRISTERIDE]: 0.3 mL/min/kg.
Regarding `CCCCc1ncc(/C=C(\Cc2cccs2)C(=O)O)n1Cc1ccc(C(=O)O)cc1` [EPROSARTAN], the CL amounted to 1.2 mL/min/kg.
With `C[C@]12CC[C@@H]3c4ccc(OC(=O)N(CCCl)CCCl)cc4CC[C@H]3[C@@H]1CC[C@@H]2OP(=O)(O)O` [ESTRAMUSTINE PHOSPHATE], the CL was determined as 0.9 mL/min/kg.
The same measure for `CCNCC(O)c1cccc(O)c1` (configuration not stated) [ETILEFRINE]: 10 mL/min/kg.
The same measure for `C[C@@H]1O[C@@H]1P(=O)(O)O` [FOSFOMYCIN]: 0.02 mL/min/kg.
The same measure for `CN[C@@H]1CCc2[nH]c3ccc(C(N)=O)cc3c2C1` [FROVATRIPTAN]: 1.5 mL/min/kg.
Molecule `COc1c(N2CCNC(C)C2)c(F)cc2c(=O)c(C(=O)O)cn(C3CC3)c12` (configuration not stated) [GATIFLOXACIN] registered a CL of 0.5 mL/min/kg.
The same measure for `CN1C2CCCC1CC(NC(=O)c1nn(C)c3ccccc13)C2` (configuration not stated) [GRANISETRON]: 8.1 mL/min/kg; for `N=C(N)NC(=O)Cc1c(Cl)cccc1Cl` [GUANFACINE]: 2.9 mL/min/kg.
Take `CCC(C)n1ncn(-c2ccc(N3CCN(c4ccc(OCC5COC(Cn6cncn6)(c6ccc(Cl)cc6Cl)O5)cc4)CC3)cc2)c1=O` (configuration not stated) [ITRACONAZOLE]: the CL amounted to 5.1 mL/min/kg.
The same measure for `Nc1nc2c(c(=O)[nH]1)N(C=O)C(CNc1ccc(C(=O)N[C@@H](CCC(=O)O)C(=O)O)cc1)CN2` (some centres not stated) [LEUCOVORIN]: 4.5 mL/min/kg.
The same measure for `CC(=O)NC[C@H]1CN(c2ccc(N3CCOCC3)c(F)c2)C(=O)O1` [LINEZOLID]: 1.2 mL/min/kg; for `O=C1Nc2ccc(Cl)cc2C(c2ccccc2Cl)=NC1O` (configuration not stated) [LORAZEPAM]: 1 mL/min/kg.
With `CN1C(=O)C(O)N=C(c2ccccc2Cl)c2cc(Cl)ccc21` (configuration not stated) [LORMETAZEPAM], the CL was 4 mL/min/kg.
`CN(Cc1cnc2nc(N)nc(N)c2n1)c1ccc(C(=O)N[C@@H](CCC(=O)O)C(=O)O)cc1` [METHOTREXATE] showed a CL of 0.4 mL/min/kg.
The same measure for `C[C@](N)(Cc1ccc(O)c(O)c1)C(=O)O` [METHYLDOPA]: 1.4 mL/min/kg; for `CCN(CC)CCNC(=O)c1cc(Cl)c(N)cc1OC` [METOCLOPRAMIDE]: 4.6 mL/min/kg; for `Cc1ccccc1N1C(=O)c2cc(S(N)(=O)=O)c(Cl)cc2NC1C` (configuration not stated) [METOLAZONE]: 0.3 mL/min/kg.
As for `Cc1[nH]c(=O)c(C#N)cc1-c1ccncc1` [MILRINONE], the CL stood at 1.2 mL/min/kg.
The same measure for `COc1nc(C)nc(Cl)c1N=C1NCCN1` [MOXONIDINE]: 3.5 mL/min/kg; for `CC(C)[C@H]1CC[C@H](C(=O)N[C@H](Cc2ccccc2)C(=O)O)CC1` [NATEGLINIDE]: 1.7 mL/min/kg; for `COCCOC(=O)C1=C(C)NC(C)=C(C(=O)OC(C)C)C1c1cccc([N+](=O)[O-])c1` (configuration not stated) [NIMODIPINE]: 15 mL/min/kg.
The same measure for `COC(=O)C1=C(C)NC(C)=C(C(=O)OCC(C)C)C1c1ccccc1[N+](=O)[O-]` (configuration not stated) [NISOLDIPINE]: 15 mL/min/kg; for `CC1COc2c(N3CCN(C)CC3)c(F)cc3c(=O)c(C(=O)O)cn1c23` (configuration not stated) [OFLOXACIN]: 0.8 mL/min/kg; for `CCC(CC)O[C@@H]1C=C(C(=O)O)C[C@H](N)[C@H]1NC(C)=O` [OSELTAMIVIR CARBOXYLATE]: 0.3 mL/min/kg.
For `COc1ccc(Cc2nccc3cc(OC)c(OC)cc23)cc1OC` [PAPAVERINE], the CL was found to be 11 mL/min/kg.
Regarding `C[C@H](/C=C/[C@H](C)C(C)(C)O)[C@H]1CC[C@H]2/C(=C/C=C3C[C@@H](O)C[C@H](O)C3)CCC[C@]12C` [PARICALCITOL], the CL worked out at 0.9 mL/min/kg.
The same measure for `CC1(C)S[C@@H]2[C@H](NC(=O)COc3ccccc3)C(=O)N2[C@H]1C(=O)O` [PENICILLIN V]: 5.1 mL/min/kg.

Values taken from ChEMBL document CHEMBL1156824, “Physicochemical space for optimum oral bioavailability: contribution of human intestinal absorption and first-pass elimination” (J Med Chem, 2010).
